Reference: article PMC11279465, “Dual Inhibitors of P-gp and Carbonic Anhydrase XII (hCA XII) against Tumor Multidrug Resistance with Piperazine Scaffold” (Molecules, 2024)

Columns and labels:
hCA I = target: T1, hCA I (Homo sapiens, UniProt P00915); assay: CA inhibition, stopped-flow CO2 hydrase assay; format: biochemical; conditions: stopped-flow technique; incubation time 6 h; mean of 3 assays
T1 construct: made in house
Method in brief: (§1)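 Stopped-flow CO2 hydration used saturated CO2 solutions at 25 °C as substrate. Enzyme and inhibitor (10 μM stocks in DMSO-water, diluted down to 0.01 nM) were preincubated for 6 h at room temperature.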

hCA II = target: T2, hCA II (Homo sapiens, UniProt P00918); assay: CA inhibition, stopped-flow CO2 hydrase assay; format: biochemical; conditions: stopped-flow technique; incubation time 6 h; mean of 3 assays
T2 construct: made in house
Method in brief: as §1

hCA IX = target: T3, hCA IX (Homo sapiens, UniProt Q16790); assay: CA inhibition, stopped-flow CO2 hydrase assay; format: biochemical; conditions: stopped-flow technique; incubation time 6 h; mean of 3 assays
T3 construct: made in house
Method in brief: as §1

hCA XII = target: T4, hCA XII (Homo sapiens, UniProt O43570); assay: CA inhibition, stopped-flow CO2 hydrase assay; format: biochemical; conditions: stopped-flow technique; incubation time 6 h; mean of 3 assays
T4 construct: made in house
Method in brief: as §1

K562/DOX cells = assay: Doxorubicin cytotoxicity enhancement assay (MTT); format: cell-based, human; conditions: 72 h
Method in brief: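 K562/DOX cells exposed 72 h to varying doxorubicin concentrations plus 1 or 3 µM test compound. Viability by MTT absorbance, expressed as percentage of untreated control cells.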

MRP1 = target: T5, MRP1 (Homo sapiens, UniProt P33527); assay: Calcein-AM transport inhibition in MDCK-MRP1 cells; format: cell-based; conditions: mean ± SEM
T5 construct: expressed in transfected cells; host or cells: MDCK (Madin-Darby Canine Kidney)
Text: (§2) The MDR interaction potency of these compounds was studied by detecting the inhibition of the P-gp-, MRP1- or BCRP-mediated efflux of a substrate in cells overexpressing the studied pumps. In detail, we measured the following: (i) the transport inhibition of the profluorescent probe calcein-AM (P-gp and MRP1 substrate) in MDCK-MDR1 and MDCK-MRP1 cells (P-gp- and MRP1-overexpressing cells, respectively); (ii) the transport inhibition of the fluorescent probe Hoechst 33342 (BCRP substrate) in MDCK-BCRP cells (BCRP-overexpressing cells).
Experiments were performed as previously described. MDCK-MDR1 and MDCK-MRP1 cells (30,000 cells per well) were seeded in a 96-well black CulturePlate in 100 µL of medium and allowed to grow overnight in a humidified atmosphere of 5% CO2 at 37 °C. […] All wells were washed 3 times with 100 µL ice-cold PBS and read with Victor3 (PerkinElmer) after adding 100 µL of cold PBS. […] In these experimental conditions, cell Calcein-AM accumulation in the absence and in the presence of each tested compound was evaluated and compared to the basal level of fluorescence derived from untreated cells. The increase in fluorescence from the baseline level was measured in the treated wells. EC50 values were determined by fitting the rate of fluorescence increase versus log[dose].

A549/DOX cells [1] = assay: Intrinsic cytotoxicity (MTT); format: cell-based, human; conditions: compound alone, 1 µM, 48 h; A549/DOX vs A549
Procedure: (§3) All compounds were preliminarily studied to evaluate their intrinsic cytotoxicity at different concentrations (from 10 nM to 50 µM) in the parental HT29 and A549 and the resistant HT29/DOX and A549/DOX cells using the MTT assay.
(§4) The intrinsic toxicity of the studied compounds was determined by an MTT assay. K562 and K562/DOX were exposed for 72 h with compounds at 1 and 3 µM concentrations while HT29, A549, HT29/DOX and A549/DOX cells were incubated for 48 h with compounds used at different concentrations (from 10 nM to 50 µM). The percentage of growth compared to the untreated control was transformed into histograms with the GraphPad Prism 5 program. […]

HT29/DOX cells [2] = assay: Intrinsic cytotoxicity (MTT); format: cell-based, human; conditions: compound alone, 1 µM, 48 h; HT29/DOX vs HT29
Procedure: as §3, §4

A549/DOX cells [3] = assay: ROS measurement (DCFDA-AM); format: cell-based, human; conditions: 1 µM
Procedure: (§5) Selected compounds have been tested for their cytotoxic activity at 24 h on HT29/DOX and A549/DOX cells and on the parental HT29 and A549 cells by MTT assay. To evaluate the mechanisms involved in CS, reactive oxygen species (ROS) were measured using the fluorescent probe 5-(and-6)-chloromethyl-2′,7′-dichlorodihydro-fluorescein diacetate-acetoxymethyl ester (DCFDA-AM), as previously reported. The results were expressed as nmol/mg cellular proteins. The amount of TBARS, as an index of lipoperoxidation, was measured with the Lipid Peroxidation (4-HNE) Assay Kit (Abcam, Cambridge, UK) that evaluates the 4-hydroxy-nonenale, one of the TBARS Results were expressed as nmoles/mg mitochondrial protein.

HT29/DOX cells [4] = assay: ROS measurement (DCFDA-AM); format: cell-based, human; conditions: 1 µM
Procedure: as §5

A549/DOX cells [5] = assay: TBARS (lipid peroxidation, 4-HNE kit); format: cell-based, human; conditions: 1 µM
Procedure: as §5

HT29/DOX cells [6] = assay: TBARS (lipid peroxidation, 4-HNE kit); format: cell-based, human; conditions: 1 µM
Procedure: as §5

A549/DOX cells [7] = assay: Membrane fluidity; format: cell-based, human; conditions: 1 µM
Procedure: (§6) Membrane fluidity was measured fluorometrically using the Membrane Fluidity Kit, Abcam, according to the manufacturer’s instructions.

HT29/DOX cells [8] = assay: Membrane fluidity; format: cell-based, human; conditions: 1 µM
Procedure: as §6

P-gp [9] = target: T6, P-gp (Homo sapiens, UniProt P08183); assay: P-gp ATPase activity (HT29/DOX cells); format: biochemical; set-up: endogenous in cells; host or cells: HT29/DOX (A27) and A549/DOX (A28); conditions: 1 µM, compared with HT29
Procedure: (§7) Plasma-membrane vesicles enriched with P-gp were prepared by sequential centrifugation as detailed previously. The ATPase activity of immunopurified P-gp was evaluated spectrophotometrically by measuring the absorbance of the phosphate hydrolyzed from ATP at 620 nm, using a Synergy HT Multi-Detection Microplate Reader (Bio-Tek Instruments). The absorbance was converted into μmol hydrolyzed phosphate/min/mg proteins, according to the titration curve previously prepared.

P-gp [10] = target: T6, P-gp; assay: P-gp ATPase activity (A549/DOX cells); format: biochemical; set-up: endogenous in cells; host or cells: HT29/DOX (A27) and A549/DOX (A28); conditions: 1 µM, compared with A549
Procedure: as §7

P-gp [11] = target: T6, P-gp; assay: Calcein-AM transport inhibition in MDCK-MDR1 cells; format: cell-based; set-up: expressed in transfected cells; host or cells: MDCK (Madin-Darby Canine Kidney); conditions: mean ± SEM
Text: as §2
Experiments were performed as previously described. MDCK-MDR1 and MDCK-MRP1 cells (30,000 cells per well) were seeded in a 96-well black CulturePlate in 100 µL of medium and allowed to grow overnight in a humidified atmosphere of 5% CO2 at 37 °C. Tested compounds (100 µL) in a final concentration ranging between 0.01 nM and 100 µM, solubilized in culture medium, were added to the monolayers. After 30 min in a humidified atmosphere of 5% CO2 at 37 °C, 100 µL of Calcein-AM in phosphate-buffered saline (PBS) was added to obtain a final concentration of 2.5 µM and the plate was incubated for 30 min. All wells were washed 3 times with 100 µL ice-cold PBS and read with Victor3 (PerkinElmer) after adding 100 µL of cold PBS. Excitation and emission wavelengths of 485 nm and 535 nm, respectively, were used. In these experimental conditions, cell Calcein-AM accumulation in the absence and in the presence of each tested compound was evaluated and compared to the basal level of fluorescence derived from untreated cells. The increase in fluorescence from the baseline level was measured in the treated wells. EC50 values were determined by fitting the rate of fluorescence increase versus log[dose].

T6 sequence (P08183 whole entry): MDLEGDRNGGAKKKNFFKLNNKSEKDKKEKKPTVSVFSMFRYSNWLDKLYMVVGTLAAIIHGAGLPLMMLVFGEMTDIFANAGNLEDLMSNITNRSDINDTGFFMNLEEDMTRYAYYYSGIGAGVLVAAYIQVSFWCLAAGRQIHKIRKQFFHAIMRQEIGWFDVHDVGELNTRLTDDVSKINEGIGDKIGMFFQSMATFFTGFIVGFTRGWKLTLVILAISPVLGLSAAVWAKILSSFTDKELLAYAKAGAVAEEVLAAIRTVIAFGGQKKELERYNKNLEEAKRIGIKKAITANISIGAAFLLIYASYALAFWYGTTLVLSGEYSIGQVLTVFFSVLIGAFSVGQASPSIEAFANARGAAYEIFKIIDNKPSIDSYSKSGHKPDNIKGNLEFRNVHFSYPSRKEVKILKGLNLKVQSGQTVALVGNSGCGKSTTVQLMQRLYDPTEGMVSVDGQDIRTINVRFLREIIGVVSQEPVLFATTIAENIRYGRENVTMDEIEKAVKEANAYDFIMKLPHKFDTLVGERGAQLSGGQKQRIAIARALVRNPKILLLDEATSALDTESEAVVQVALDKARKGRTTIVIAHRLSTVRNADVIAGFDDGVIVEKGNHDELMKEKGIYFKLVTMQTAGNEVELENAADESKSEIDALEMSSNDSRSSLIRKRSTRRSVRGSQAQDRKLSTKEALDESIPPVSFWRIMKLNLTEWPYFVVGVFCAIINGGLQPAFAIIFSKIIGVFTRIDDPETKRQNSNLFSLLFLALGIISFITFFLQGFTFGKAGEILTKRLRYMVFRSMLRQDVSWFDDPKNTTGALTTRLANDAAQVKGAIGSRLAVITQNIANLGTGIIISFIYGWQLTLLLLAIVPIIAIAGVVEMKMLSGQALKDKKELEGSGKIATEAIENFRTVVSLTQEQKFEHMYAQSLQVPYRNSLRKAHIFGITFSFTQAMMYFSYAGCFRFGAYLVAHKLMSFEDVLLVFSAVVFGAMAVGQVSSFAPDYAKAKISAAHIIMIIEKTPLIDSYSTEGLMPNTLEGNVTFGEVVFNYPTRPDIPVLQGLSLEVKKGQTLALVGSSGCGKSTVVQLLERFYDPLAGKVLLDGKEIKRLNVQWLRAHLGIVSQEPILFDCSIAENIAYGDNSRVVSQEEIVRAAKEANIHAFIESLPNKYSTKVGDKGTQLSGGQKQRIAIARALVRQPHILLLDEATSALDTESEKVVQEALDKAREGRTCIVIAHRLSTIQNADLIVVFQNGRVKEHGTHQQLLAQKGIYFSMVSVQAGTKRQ
T1 sequence (P00915 whole entry): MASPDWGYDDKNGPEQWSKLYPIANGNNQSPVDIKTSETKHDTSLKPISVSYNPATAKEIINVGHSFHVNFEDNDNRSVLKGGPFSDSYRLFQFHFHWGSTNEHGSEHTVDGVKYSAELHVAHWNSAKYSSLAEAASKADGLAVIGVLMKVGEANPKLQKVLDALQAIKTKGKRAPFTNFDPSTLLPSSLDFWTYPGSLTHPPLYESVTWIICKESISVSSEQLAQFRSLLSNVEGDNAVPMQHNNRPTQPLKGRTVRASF
T4 sequence (O43570 25-354): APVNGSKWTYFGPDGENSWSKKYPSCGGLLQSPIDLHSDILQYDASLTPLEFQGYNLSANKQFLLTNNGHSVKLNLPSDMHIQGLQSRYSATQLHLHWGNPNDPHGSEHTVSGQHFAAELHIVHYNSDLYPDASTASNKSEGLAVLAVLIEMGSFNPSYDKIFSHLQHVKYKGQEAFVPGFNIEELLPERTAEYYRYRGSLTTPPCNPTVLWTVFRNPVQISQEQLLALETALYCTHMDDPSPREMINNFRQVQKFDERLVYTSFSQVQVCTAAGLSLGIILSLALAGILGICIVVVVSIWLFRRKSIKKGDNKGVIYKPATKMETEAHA
T5 sequence (P33527 whole entry): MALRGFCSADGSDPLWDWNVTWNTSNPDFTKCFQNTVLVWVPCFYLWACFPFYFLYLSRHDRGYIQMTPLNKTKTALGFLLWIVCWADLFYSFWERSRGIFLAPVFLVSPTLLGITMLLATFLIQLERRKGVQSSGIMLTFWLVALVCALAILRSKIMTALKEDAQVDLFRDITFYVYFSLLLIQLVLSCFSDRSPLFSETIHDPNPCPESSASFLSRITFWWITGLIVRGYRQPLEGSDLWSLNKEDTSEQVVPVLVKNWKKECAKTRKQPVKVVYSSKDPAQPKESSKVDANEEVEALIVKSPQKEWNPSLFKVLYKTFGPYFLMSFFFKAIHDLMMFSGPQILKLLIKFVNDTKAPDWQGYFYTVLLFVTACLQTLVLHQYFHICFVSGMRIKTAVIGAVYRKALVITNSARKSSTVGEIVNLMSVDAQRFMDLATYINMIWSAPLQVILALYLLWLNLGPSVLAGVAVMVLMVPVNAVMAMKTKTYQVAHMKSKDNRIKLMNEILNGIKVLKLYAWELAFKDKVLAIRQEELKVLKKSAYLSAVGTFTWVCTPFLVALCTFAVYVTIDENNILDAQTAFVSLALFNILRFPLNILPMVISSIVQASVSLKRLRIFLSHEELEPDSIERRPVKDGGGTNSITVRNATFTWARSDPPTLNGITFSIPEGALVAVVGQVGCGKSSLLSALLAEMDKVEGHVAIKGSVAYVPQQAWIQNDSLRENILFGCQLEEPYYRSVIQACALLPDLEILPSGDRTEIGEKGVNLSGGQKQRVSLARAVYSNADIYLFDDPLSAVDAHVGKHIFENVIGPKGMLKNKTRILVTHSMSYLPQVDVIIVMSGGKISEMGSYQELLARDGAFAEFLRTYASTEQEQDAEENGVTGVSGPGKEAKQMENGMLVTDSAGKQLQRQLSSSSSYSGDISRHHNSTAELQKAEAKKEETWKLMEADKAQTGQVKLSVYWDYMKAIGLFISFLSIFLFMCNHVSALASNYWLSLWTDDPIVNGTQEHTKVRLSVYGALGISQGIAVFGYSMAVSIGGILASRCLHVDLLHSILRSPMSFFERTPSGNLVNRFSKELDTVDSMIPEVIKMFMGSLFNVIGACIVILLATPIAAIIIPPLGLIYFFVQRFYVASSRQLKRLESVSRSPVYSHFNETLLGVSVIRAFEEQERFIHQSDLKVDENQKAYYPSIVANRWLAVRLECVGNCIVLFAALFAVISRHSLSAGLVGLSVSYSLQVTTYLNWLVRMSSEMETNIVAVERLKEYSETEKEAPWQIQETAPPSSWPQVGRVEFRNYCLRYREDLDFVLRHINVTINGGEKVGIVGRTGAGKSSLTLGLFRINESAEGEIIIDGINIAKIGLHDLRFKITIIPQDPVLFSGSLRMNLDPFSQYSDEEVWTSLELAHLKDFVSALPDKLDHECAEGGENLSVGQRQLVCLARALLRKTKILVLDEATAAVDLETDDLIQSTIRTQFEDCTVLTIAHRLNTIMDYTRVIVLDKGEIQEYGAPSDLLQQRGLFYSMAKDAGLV

Ki (hCA I): > 10 µM | Ki (hCA II): > 10 µM | Ki (hCA IX): 0.0237 µM | Ki (hCA XII): 0.0062 µM | EC50 (MRP1): 52 ± 10 µM | EC50 (P-gp [11]): 14.5 ± 0.25 µM
Compound: COc1cc(CN2CCN(CCOc3ccc4ccc(=O)oc4c3)CC2)cc(OC)c1OC [Compound 13, 7-(2-(4-(3,4,5-Trimethoxybenzyl)piperazin-1-yl)ethoxy)-2H-chromen-2-one]
RF (Reversal Fold: IC50 of doxorubicin alone / in presence of modulator) (K562/DOX cells; compound at 1 µM): 1.0 | RF (Reversal Fold: IC50 of doxorubicin alone / in presence of modulator) (K562/DOX cells; compound at 3 µM): 1.9 | more cytotoxic in resistant cells than in parental sensitive cells (A549/DOX cells [1]): 15%-20% | more cytotoxic in resistant cells than in parental sensitive cells (HT29/DOX cells [2]): 15%-20% | increase of ROS levels compared to the control (A549/DOX cells [3]): 7–8 times | increase of ROS levels compared to the control (HT29/DOX cells [4]): 3–4 times | increase of TBARS levels compared to the control (A549/DOX cells [5]): 4 times | increase of TBARS levels compared to the control (HT29/DOX cells [6]): 2.6 times | membrane fluidity (A549/DOX cells [7]): increased membrane fluidity | membrane fluidity (HT29/DOX cells [8]): increased membrane fluidity | P-gp catalytic activity (P-gp [9]): lowered the catalytic efficacy of P-gp in resistant cells to levels comparable to drug-sensitive HT29 and A549 cells | P-gp catalytic activity (P-gp [10]): lowered the catalytic efficacy of P-gp in resistant cells to levels comparable to drug-sensitive HT29 and A549 cells
